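Five concentrations, 48 hours, 96-well plates. GI50 = concentration required for 50% inhibition of growth.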 The source made the active and inactive calls. Rule as the data show it: active = GI50 up to about 1.1 µM and inactive = higher.
Columns and labels:
Assay in all cases: inhibition of tumour cell growth, NCI panel, 48 h
DLD-1 = system: DLD-1
DMS-273 = system: DMS-273
HOP-18 = system: HOP-18
KM-20L2 = system: KM-20L2
LXFL 529 = system: LXFL 529
RXF 631 = system: RXF 631
SNB-78 = system: SNB-78
XF498 = system: XF498
DMS-114 = system: DMS-114

| Structure (SMILES) | GI50 (DLD-1) | GI50 (DMS-273) | GI50 (HOP-18) | GI50 (KM-20L2) | GI50 (LXFL 529) | GI50 (RXF 631) | GI50 (SNB-78) | GI50 (XF498) | GI50 (DMS-114) |
| --- | --- | --- | --- | --- | --- | --- | --- | --- | --- |
| NNC(=O)C(=O)NN=C(C(Cl)(Cl)CO)C(Cl)(Cl)CO | 22.6 µM (inactive) | 65.9 µM (inactive) | > 100 µM (inactive) | 44.5 µM (inactive) | 28.2 µM (inactive) | 21.3 µM (inactive) | 21.5 µM (inactive) | 16.6 µM (inactive) | – |
| C=C[C@H]1C=Cc2c(OC)cccc2[C@@H]1COP1(=S)NC(C)C(c2ccccc2)O1 (stereo partly drawn) | > 100 µM (inactive) | 57.9 µM (inactive) | > 100 µM (inactive) | > 100 µM (inactive) | 48.5 µM (inactive) | – | > 100 µM (inactive) | > 100 µM (inactive) | 32.9 µM (inactive) |
| COC(=O)[C@]1(C)CCC[C@@]2(C)C1CCC1=C[C@@]3(C(C)C)CC[C@]12OO3 (stereo partly drawn) | 24.2 µM (inactive) | 25.7 µM (inactive) | – | > 10 µM (inactive) | 23.2 µM (inactive) | 22.6 µM (inactive) | 54.3 µM (inactive) | – | – |
| O=C1c2cccc3cccc(c23)C(=O)N1CCCN1CCN(CCCN2C(=O)c3cccc4cccc(c34)C2=O)CC1 | > 100 µM (inactive) | > 100 µM (inactive) | > 100 µM (inactive) | > 100 µM (inactive) | > 100 µM (inactive) | > 100 µM (inactive) | > 100 µM (inactive) | > 100 µM (inactive) | > 100 µM (inactive) |
| CC(C)(Br)C(Br)CC/C(=C/CBr)CBr.CC(C)(Br)C(Br)CC/C(=C\CBr)CBr (stereo not drawn) | 3.39 µM (inactive) | 1.65 µM (inactive) | 18 µM (inactive) | – | 3.3 µM (inactive) | – | 4.46 µM (inactive) | – | – |
| N#Cc1ccccc1Nc1ccccc1S | 35.6 µM (inactive) | 34.5 µM (inactive) | 89.7 µM (inactive) | – | 22.5 µM (inactive) | 37.8 µM (inactive) | 37.6 µM (inactive) | 18 µM (inactive) | 21.8 µM (inactive) |
| COc1ccc(C)cc1-c1ccc(-c2cc(C)ccc2OC)o1 | > 100 µM (inactive) | > 100 µM (inactive) | – | > 100 µM (inactive) | > 100 µM (inactive) | > 100 µM (inactive) | > 100 µM (inactive) | – | > 100 µM (inactive) |
| COC(=O)[C@@]12C3=NO[C@]1(C(=O)OC)C(O[Si](C)(C)C(C)(C)C)[C@@H](OC(C)=O)[C@@H](OC(C)=O)[C@@H]2[C@@H](OCc1ccccc1)CC3 (stereo partly drawn) | > 30.5 µM (inactive) | 6.05 µM (inactive) | > 100 µM (inactive) | > 100 µM (inactive) | 4.45 µM (inactive) | – | > 96.2 µM (inactive) | 15.8 µM (inactive) | 6.35 µM (inactive) |
| COc1c(C)c(O)c2c(c1C)OC(c1ccccc1)CC2=O (stereo not drawn) | 66.1 µM (inactive) | 59.6 µM (inactive) | 25 µM (inactive) | 31.6 µM (inactive) | 35.2 µM (inactive) | – | > 100 µM (inactive) | – | 40.8 µM (inactive) |
| COc1cc(/C=C/c2ccc(Br)cc2)cc(OC)c1OC | 6.93 µM (inactive) | 4.91 µM (inactive) | 6.61 µM (inactive) | 7.13 µM (inactive) | 16.1 µM (inactive) | 9.77 µM (inactive) | – | 20.2 µM (inactive) | 10.4 µM (inactive) |
| CC1SC2=NC3=C(c4ccccc4C3=O)C(c3ccc(Cl)cc3)N2C1=O (stereo not drawn) | > 100 µM (inactive) | > 100 µM (inactive) | – | > 100 µM (inactive) | > 100 µM (inactive) | > 100 µM (inactive) | – | > 100 µM (inactive) | > 100 µM (inactive) |
| CCOc1ccc(NC(=O)CC2C(=O)Nc3ccccc3S2(=O)=O)cc1 (stereo not drawn) | > 100 µM (inactive) | – | > 100 µM (inactive) | > 100 µM (inactive) | > 100 µM (inactive) | > 100 µM (inactive) | 90.4 µM (inactive) | 29.8 µM (inactive) | > 100 µM (inactive) |
| C/C(=N/NC(=O)C[n+]1ccccc1)C(CN(CC(C)C)CC(C)C)C(=O)Nc1ccc(C)cc1C (stereo not drawn) | > 100 µM (inactive) | – | – | > 100 µM (inactive) | – | > 100 µM (inactive) | – | – | > 100 µM (inactive) |
| Cc1nsc2cc(Cl)n(C)c(=O)c12 | > 100 µM (inactive) | > 100 µM (inactive) | – | > 100 µM (inactive) | > 100 µM (inactive) | > 100 µM (inactive) | > 100 µM (inactive) | > 100 µM (inactive) | > 100 µM (inactive) |
| CC(=O)NC1=C(NCCO)C(=O)c2ccccc2C1=O | > 50 µM (inactive) | > 50 µM (inactive) | – | 24.2 µM (inactive) | > 50 µM (inactive) | – | > 50 µM (inactive) | > 50 µM (inactive) | – |
| CCOC(=O)C(=O)Nc1ccccc1OCC | > 100 µM (inactive) | – | > 100 µM (inactive) | – | > 100 µM (inactive) | – | > 100 µM (inactive) | > 100 µM (inactive) | > 100 µM (inactive) |
| COc1cccc(/C(Cl)=C(\C=O)c2cccc(OC)c2)c1 | 8.43 µM (inactive) | 8.17 µM (inactive) | 16.4 µM (inactive) | 20.9 µM (inactive) | 5.65 µM (inactive) | – | 4.24 µM (inactive) | 13.8 µM (inactive) | 3.12 µM (inactive) |
| CN1N=CSC12C(=O)N(c1ccccc1)C(=O)N2c1ccccc1 (stereo not drawn) | > 100 µM (inactive) | > 100 µM (inactive) | < 0.01 µM (active) | > 100 µM (inactive) | > 100 µM (inactive) | > 100 µM (inactive) | > 100 µM (inactive) | > 100 µM (inactive) | > 100 µM (inactive) |
| CC(=O)OCC1OC(n2ccc(=O)[nH]c2=O)C(OC(C)=O)C(OC(C)=O)C1OC(C)=O (stereo not drawn) | > 100 µM (inactive) | > 100 µM (inactive) | > 100 µM (inactive) | > 100 µM (inactive) | > 100 µM (inactive) | – | – | > 100 µM (inactive) | > 100 µM (inactive) |
| COc1nc(C(=O)O)c(Cl)c(OC)c1Cl | > 100 µM (inactive) | – | – | > 100 µM (inactive) | – | – | – | – | > 100 µM (inactive) |
| COc1c(O)c2ccccc2c2cc(O)ccc12 | 8.79 µM (inactive) | 6.65 µM (inactive) | 1.75 µM (inactive) | 22.5 µM (inactive) | 2.59 µM (inactive) | – | 15.5 µM (inactive) | 2.69 µM (inactive) | 1.97 µM (inactive) |
| N=C1c2ccccc2C(=O)c2c(NCCNCCO)ccc(O)c21 | 5.92 µM (inactive) | 5.57 µM (inactive) | 11.5 µM (inactive) | 5 µM (inactive) | 6.5 µM (inactive) | – | 18.8 µM (inactive) | – | 3.93 µM (inactive) |
| O=c1/c(=C/c2ccccc2[N+](=O)[O-])sc2nnc(-c3ccco3)n12 | 29.2 µM (inactive) | 28.7 µM (inactive) | 25.1 µM (inactive) | 91 µM (inactive) | 19 µM (inactive) | – | 25.7 µM (inactive) | 18.4 µM (inactive) | 20 µM (inactive) |
| CC(C)(C)c1cc2c3c(c1)c(=O)c1cccc4c(O)c5cccc(c2=O)c5c-3c41 | 61 µM (inactive) | 26.1 µM (inactive) | > 100 µM (inactive) | 33.2 µM (inactive) | > 100 µM (inactive) | – | – | 35.5 µM (inactive) | 10 µM (inactive) |
| C[C@]12CCC(=O)C=C1CC[C@@H]1C2CC[C@]2(C)Nc3c(cnn3-c3ccccc3)CC12 (stereo partly drawn) | > 100 µM (inactive) | > 100 µM (inactive) | – | > 100 µM (inactive) | > 100 µM (inactive) | 96.8 µM (inactive) | > 100 µM (inactive) | > 100 µM (inactive) | > 100 µM (inactive) |

Source: ChEMBL document CHEMBL1201862, “PubChem BioAssay data set” (2004)
